Experimental data: patent US20220073475A1, “5-MEMBERED HETEROARYL COMPOUNDS CONTAINING A HYDROXAMATE MOIETY AND THEIR USE” (UNIVERSITE DE LILLE, priority 2019, published 2022)

What follows are compounds tested on OPM2 cells (assay: CFZ potency increase, ratio of CC50 of CFZ alone / with compound). Details: OPM2, compound at 7.5 μM (Table 5).
Type: cell-based, human
From the text: Human multiple myeloma cells OPM2 (ACC 50, DSMZ) are maintained at 0.3-0.7 10^6 cells/mL in RPMI1640 medium supplemented with GlutaMAX™, 10% fetal bovine serum and 1% penicillin-streptomycin.
We developed a cell-based, high content assay allowing the rapid detection and quantification of apoptotic cells. Caspase-3/7 activity was detected in real-time using the NucView™ 488 Caspase-3 substrate (Biotium), where the caspase-3/7 substrate peptide sequence DEVD is attached to a nucleic acid dye. The NucView™ 488 reagent crosses the plasma membrane to enter the cytoplasm, where the dye is unable to bind to DNA and remains non-fluorescent. Once the substrate has been cleaved by activated caspase-3/7 in apoptotic cells, the high-affinity DNA dye is released and migrates to the cell nucleus to stain the nucleus with a bright green fluorescence. All cell nuclei were also labeled with Hoechst 33342 (Ozyme).
For OPM2, briefly, nanoliters of compound and cytotoxic agent in DMSO stock solutions were first transferred and combined in 384-microtiter well plate using an Echo555 liquid handler (Labcyte). The exact volume of each solution to be transferred was calculated to achieve subsequently the target concentration in the 70 μL volume incubate. Final DMSO content was maintained at 0.2%. Then, 70 μL of cells treated with 1 μM NucView™ 488 and 20 ng/mL Hoechst 33342 were distributed to the plates to obtain a final density of 12,000 cells per well. The microplates were incubated at 37° C. and 5% CO2 in an automated LiCONiC STR240 UB cell incubator, and images were acquired at various times at 405 nm and 488 nm with the high-resolution automated confocal microscope INCell 6000 (GE). Four fields per well were read with the 20× objective in a confocal mode. The BioCel workstation was managed by VWorks automation control software
For all cells, Columbus software (Perkin) was used for image quantification and analysis. First, Hoechst 33342 staining was used for an automated detection of nuclei, in which the mean fluorescence intensity for NucView™ 488 was quantified. Inspection of control cells at initial time was used to set a threshold level of NucView™ 488 fluorescence to separate non apoptotic cells from apoptotic cells. Finally, for each well, the result was expressed as percentage of apoptotic cells in the total cell population. CC50 values were calculated from concentration-response curves by a nonlinear regression analysis at four parameters using Excel Fit or GraphPad Prim softwares.
Activity=(% of apoptotic cells with cytotoxic agent in combination with compound of the invention)/(% of apoptotic cells with cytotoxic agent alone). • Ratio of CC50: The CC50 of the cytotoxic agent was calculated in absence and in presence of a compound of the invention.
Activity=(CC50 of agent alone)/(CC50 of agent with compound). • Ratio of AUC. Activity=(Area of the dose-concentration curve of cytotoxic agent combined with one concentration of compound)/(Area of the dose-concentration curve of cytotoxic agent alone). (Lehar J. et al, 2008 (molecular systems biology 4:215)).

SMILES	Activity: ratio (CC50 of CFZ alone)/(CC50 of CFZ in combination with compound of the invention)
O=C(CC(Cc1ccc2ccccc2c1)c1nc(CNC(=O)c2ccccc2)no1)NO (centres unmarked) [Compound 28, N-[5-(1-hydroxycarbamoylmethyl-2-naphthalen-2-yl-ethyl)-[1,2,4]oxadiazol-3-ylmethyl]-benzamide]	2.0
CC(NC(=O)c1ccc(F)cc1)c1cn([C@@H](CC(=O)NO)Cc2ccc3c(c2)CCCC3)nn1 (stereo partly drawn) [Compound 167, 4-fluoro-N-(1-(1-((R)-4-(hydroxyamino)-4-oxo-1-(5,6,7,8-tetrahydronaphthalen-2-yl)butan-2-yl)-1H-1,2,3-triazol-4-yl)ethyl)benzamide]	2.5
O=C(C[C@@H](Cc1c[nH]c2ccccc12)n1cc([C@H](CO)NC(=O)c2ccc(F)c(F)c2)nn1)NO [Compound 92, 3,4-difluoro-N-[(1R)-2-hydroxy-1-[1-[(1R)-3-(hydroxyamino)-1-(1H-indol-3-ylmethyl)-3-oxo-propyl]triazol-4-yl]ethyl]benzamide]	1.7
O=C(C[C@@H](Cc1ccc2ccccc2c1)n1cc([C@H](CO)NC(=O)c2ccc(F)c(F)c2)nn1)NO [Compound 96, 3,4-difluoro-N-[(1R)-2-hydroxy-1-[1-[(1R)-3-(hydroxyamino)-1-(2-naphthylmethyl)-3-oxo-propyl]triazol-4-yl]ethyl]benzamide]	1.4
CC(NC(=O)c1ccc(F)cc1)c1cn([C@@H](CC(=O)NO)Cc2ccc3ccccc3c2)nn1 (stereo partly drawn) [Compound 164, 4-fluoro-N-(1-(1-((R)-4-(hydroxyamino)-1-(naphthalen-2-yl)-4-oxobutan-2-yl)-1H-1,2,3-triazol-4-yl)ethyl)benzamide]	2.0
O=C(C[C@@H](Cc1ccc2c(c1)CCCC2)n1cc(CNC(=O)c2ccc(F)cc2)nn1)NO [Compound 165, (R)-4-fluoro-N-((1-(4-(hydroxyamino)-4-oxo-1-(5,6,7,8-tetrahydronaphthalen-2-yl)butan-2-yl)-1H-1,2,3-triazol-4-yl)methyl)benzamide]	1.9
O=C(C[C@@H](Cc1csc2ccccc12)n1cc(CNC(=O)c2ccc(F)c(F)c2)nn1)NO [Compound 179, (R)—N-((1-(1-(benzo[b]thiophen-3-yl)-4-(hydroxyamino)-4-oxobutan-2-yl)-1H-1,2,3-triazol-4-yl)methyl)-3,4-difluorobenzamide]	1.6
O=C(C[C@@H](Cc1c[nH]c2ccccc12)n1cc(C2COCCN2C(=O)c2ccc(F)c(F)c2)nn1)NO (stereo partly drawn) [Compound 90, (3R)-3-[4-[4-(3,4-difluorobenzoyl)morpholin-3-yl]triazol-1-yl]-4-(1H-indol-3-yl)butanehydroxamic acid]	1.4
O=C(C[C@@H](Cc1ccc2cccnc2c1)n1cc(CNC(=O)c2ccc(F)c(F)c2)nn1)NO [Compound 170, (R)-3,4-difluoro-N-((1-(4-(hydroxyamino)-4-oxo-1-(quinolin-7-yl)butan-2-yl)-1H-1,2,3-triazol-4-yl)methyl)benzamide]	1.5
CN(Cc1cn([C@@H](CC(=O)NO)Cc2ccc3ccccc3c2)nn1)C(=O)c1ccc(F)cc1 [Compound 185, (R)-4-fluoro-N-((1-(4-(hydroxyamino)-1-(naphthalen-2-yl)-4-oxobutan-2-yl)-1H-1,2,3-triazol-4-yl)methyl)-N-methylbenzamide]	1.8
O=C(C[C@@H](Cc1csc2ccccc12)n1cc(CNC(=O)c2ccc(F)cc2)nn1)NO [Compound 180, (R)—N-((1-(1-(benzo[b]thiophen-3-yl)-4-(hydroxyamino)-4-oxobutan-2-yl)-1H-1,2,3-triazol-4-yl)methyl)-4-fluorobenzamide]	1.8
O=C(C[C@@H](Cc1c[nH]c2ccccc12)n1cc(C(Cc2ccc(OCc3ccccc3)cc2)NC(=O)c2ccc(F)c(F)c2)nn1)NO (stereo partly drawn) [Compound 89, N-[2-(4-benzyloxyphenyl)-1-[1-[(1R)-3-(hydroxyamino)-1-(1H-indol-3-ylmethyl)-3-oxo-propyl]triazol-4-yl]ethyl]-3,4-difluoro-benzamide]	7.6
O=C(C[C@@H](Cc1ccc2ccccc2c1)n1nncc1CNC(=O)CCc1ccccc1)NO [Compound 25, (R)—N-hydroxy-4-naphthalen-2-yl-3-{5-[(3-phenyl-propionylamino)-methyl]-[1,2,3]-triazol-1-yl}-butyramide]	1.4
CC(C)CCN(Cc1cn([C@@H](CC(=O)NO)Cc2c[nH]c3ccccc23)nn1)C(=O)c1ccc(F)c(F)c1 [Compound 99, 3,4-difluoro-N-[[1-[(1R)-3-(hydroxyamino)-1-(1H-indol-3-ylmethyl)-3-oxo-propyl]triazol-4-yl]methyl]-N-isopentyl-benzamide]	2.5
O=C(C[C@@H](Cc1ccc2c(c1)CCC(=O)N2)n1cc(CNC(=O)c2ccc(F)c(F)c2)nn1)NO [Compound 171, (R)-3,4-difluoro-N-((1-(4-(hydroxyamino)-4-oxo-1-(2-oxo-1,2,3,4-tetrahydroquinolin-6-yl)butan-2-yl)-1H-1,2,3-triazol-4-yl)methyl)benzamide]	1.2
O=C(C[C@@H](Cc1ccc2cc[nH]c2c1)n1cc(CNC(=O)c2ccc(F)cc2)nn1)NO [Compound 176, (R)-4-fluoro-N-((1-(4-(hydroxyamino)-1-(1H-indol-6-yl)-4-oxobutan-2-yl)-1H-1,2,3-triazol-4-yl)methyl)benzamide]	1.3
CC(C)CN(Cc1cn([C@@H](CC(=O)NO)Cc2c[nH]c3ccccc23)nn1)C(=O)c1ccc(F)c(F)c1 [Compound 98, 3,4-difluoro-N-[[1-[(1R)-3-(hydroxyamino)-1-(1H-indol-3-ylmethyl)-3-oxo-propyl]triazol-4-yl]methyl]-N-isobutyl-benzamide]	2.0
O=C(C[C@@H](Cc1ccc2ccccc2c1)n1cc(CNS(=O)(=O)c2ccc(F)cc2)nn1)NO [Compound 6, (R)-3-{4-[(4-Fluoro-benzenesulfonylamino)-methyl]-[1,2,3]triazol-1-yl}-N-hydroxy-4-naphthalen-2-yl-butyramide]	1.3
O=C(C[C@@H](Cc1c[nH]c2ccccc12)n1cc([C@@H]2CCCN2C(=O)c2ccc(F)c(F)c2)nn1)NO [Compound 88, (3R)-3-[4-[(2S)-1-(3,4-difluorobenzoyl)pyrrolidin-2-yl]triazol-1-yl]-4-(1H-indol-3-yl)butanehydroxamic acid]	1.7
O=C(C[C@@H](Cc1cnc2ccccc2c1)n1cc(CNC(=O)c2ccc(F)c(F)c2)nn1)NO [Compound 143, (R)-3,4-difluoro-N-((1-(4-(hydroxyamino)-4-oxo-1-(quinolin-3-yl)butan-2-yl)-1H-1,2,3-triazol-4-yl)methyl)benzamide]	1.1
O=C(NCc1noc(C(Cc2ccc3ccccc3c2)C(=O)NO)n1)c1ccc(F)cc1 (centres unmarked) [Compound 44, 4-Fluoro-N-[5-(1-hydroxycarbamoyl-2-naphthalen-2-yl-ethyl)-[1,2,4]oxadiazol-3-ylmethyl]-benzamide]	1.2

Same assay, conditions: OPM2, compound at 7.5 μM (Table 6)

SMILES	Activity: ratio (CC50 of CFZ alone)/(CC50 of CFZ in combination with compound of the invention)
O=C(C[C@@H](Cc1c[nH]c2ccccc12)n1cc(C(Cc2ccc(OCc3ccccc3)cc2)NC(=O)c2ccc(F)c(F)c2)nn1)NO (stereo partly drawn) [Compound 89, N-[2-(4-benzyloxyphenyl)-1-[1-[(1R)-3-(hydroxyamino)-1-(1H-indol-3-ylmethyl)-3-oxo-propyl]triazol-4-yl]ethyl]-3,4-difluoro-benzamide]	7.6

Same assay, conditions: OPM2, compound at a concentration of 3.7 μM (Table 5, footnote b)

SMILES	Activity: ratio (CC50 of CFZ alone)/(CC50 of CFZ in combination with compound of the invention)
CN(Cc1cn([C@@H](CC(=O)NO)Cc2ccc3c(c2)CCCC3)nn1)C(=O)c1ccc(F)cc1 [Compound 166, (R)-4-fluoro-N-((1-(4-(hydroxyamino)-4-oxo-1-(5,6,7,8-tetrahydronaphthalen-2-yl)butan-2-yl)-1H-1,2,3-triazol-4-yl)methyl)-N-methylbenzamide]	2.1
